Measured values published in ChEMBL document CHEMBL1201862, “PubChem BioAssay data set” (2004).
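Cells were grown in 96-well plates and exposed to each compound for 48 hours at five concentrations; endpoints were interpolated linearly between bracketing concentrations, or set to the highest concentration if not reached. GI50 = concentration required for 50% inhibition of growth.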 Active and inactive are the calls of the source. Cut-off read from the data, not from the text of the source: active = GI50 up to about 1.1 µM and inactive = higher.

Legend:
Assay in all cases: NCI anticancer screen, dose series, 48 h
[1] = test system: DMS-114
[2] = test system: XF498
[3] = test system: KM-20L2
[4] = test system: HOP-18
[5] = test system: RXF 631
[6] = test system: M19-MEL
[7] = test system: SNB-78
[8] = test system: DMS-273

Measured: GI50

O=C(NCc1cccnc1)C1COc2cc(-c3cc(=O)c4ccccc4o3)ccc2O1 (stereo not drawn)
inactive: [1] 14.1 µM | [2] 24.6 µM | [3] > 100 µM | [4] > 79.4 µM | [5] > 56.1 µM | [6] 3.93 µM | [7] > 82.8 µM

COc1ccccc1NC(=O)C1=C(C)NC(C)=C(C(=O)Nc2ccccc2OC)C1c1ccccc1[N+](=O)[O-]
inactive: [1] 15 µM | [2] 22.2 µM | [4] 29.7 µM | [5] 19.6 µM | [6] 18.5 µM | [8] 17.9 µM | [7] 34.2 µM

Cc1cc(C)cc(Sc2c([N+](=O)[O-])ncn2C)c1
inactive: [1] 12.2 µM | [2] 16.6 µM | [3] 35.2 µM | [4] 1.28 µM | [5] 16 µM | [6] 22.6 µM | [8] 8.09 µM | [7] 13.6 µM

NC1=C(C(=O)O)C(=O)C(Nc2c(O)cccc2C(=O)O)=CC1=O
inactive: [1] > 100 µM | [2] > 100 µM | [3] > 100 µM | [4] > 100 µM | [5] > 100 µM | [6] 18.7 µM | [8] > 100 µM | [7] > 100 µM

CCOC(=O)C(/N=N\c1ccc(S(N)(=O)=O)cc1)C(C)=O (stereo not drawn)
inactive: [1] > 100 µM | [2] > 100 µM | [3] > 100 µM | [4] > 100 µM | [5] > 100 µM | [6] > 100 µM | [8] > 100 µM | [7] > 100 µM
